Laboratory results: article PMC11638965, “Leveraging Dual-Ligase Recruitment to Enhance Protein Degradation via a Heterotrivalent Proteolysis Targeting Chimera” (Journal of the American Chemical Society, 2024)
Entries after “also recorded” stand apart in the source; their conditions may differ.

Legend:
[1] = biological target: T1, VHL (Homo sapiens, UniProt P40337); assay: Western blot dose-response degradation in HEK293 cells; assay type: cell-based; details: 1 μM to 100 pM, 6 h
T1 construct: host or cells: HEK293, transient
T1 sequence (P40337 whole entry): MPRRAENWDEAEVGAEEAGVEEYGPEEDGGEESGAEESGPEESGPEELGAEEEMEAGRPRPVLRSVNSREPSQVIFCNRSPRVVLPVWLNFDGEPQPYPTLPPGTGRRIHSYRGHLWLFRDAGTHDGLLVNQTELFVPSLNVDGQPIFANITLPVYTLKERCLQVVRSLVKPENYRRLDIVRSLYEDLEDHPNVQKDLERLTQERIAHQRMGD
Procedure, shortened: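 HEK293 cells treated 6 h at 37 °C with compound over 1 μM to 100 pM alongside vehicle control; lysates in RIPA immunoblotted with target antibodies, tubulin as loading control, fluorescent detection. Band intensities fitted by linear regression to give pDC50; SD for two independent repeats, SEM for three.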

[2] = biological target: BRD4 (Homo sapiens, UniProt O60885); assay: NanoBRET ubiquitination assay; assay type: cell-based; details: parental vs CRBN KO or VHL KO HiBiT-BRD4 cells, HaloTag-Ubiquitin, 12 nM to 3 μM, 4 h
Experimental: NanoBRET ubiquitination experiments were conducted using Promega kit ND2690. HEK293 HiBiT-BRD4 parental, VHL KO, or CRBN KO cells (all stably expressing LgBiT) were plated in 6-well plates at 800,000 cells/well and allowed to adhere for 4–6 h prior to being transfected with 2 μg of HaloTag-Ubiquitin Fusion Vector. Cells were allowed to express overnight, then were trypsinized and resuspended in Opti-MEM (reduced serum, no phenol red) 4% FBS at a concentration of 220,000 cells/mL. HaloTag NanoBRET 618 ligand was added at a final concentration of 100 nM to cells (with a portion of cells retained without ligand for use as no-acceptor controls for normalization). 90 μL of cells were then dispensed into each well of a tissue culture 96-well plate and cells were allowed to adhere overnight. The next day, media was aspirated from cells and replaced with 90 μL of a 1× solution of Opti-MEM 4% FBS containing a 1:100 dilution of Nano-Glo Vivazine substrate. […] 10 μL of each 10 × PROTAC was added to each well and the plate was immediately placed in a ClarioStar plate reader (prewarmed to 37 °C) where donor emission (460 nm) and acceptor emission (618 nm) was collected every 3 min for 4 h. NanoBRET ratios were calculated as described in the ternary complex assay.

[3] = test system: HiBiT-BRD4 and HaloTag-VHL; assay: NanoBRET live cell ternary complex formation assay; assay type: cell-based, human; details: HiBiT-BRD4 HEK293 cells, MG132 pretreatment, 0.01, 0.1 and 1 μM, 3.5 h
Experimental: (§1) NanoBRET ternary complex assays were performed using Promega kits for CRBN (ND2720) and VHL (ND2700) according to manufacturer’s instructions. One day prior to the assay, HEK293 HiBiT-BRD4 (LgBiT Stable) were plated at a density of 800,000 cells/well in a 6-well plate. Cells were allowed to adhere for at least 4 h. Transfection mixtures containing 100 μL Opti-MEM, 6 μL FuGENE HD, and either 2 μg HaloTag-CRBN or HaloTag-VHL were prepared and allowed to incubate for 10 min at room temperature prior to addition to the cells. The next day, cells were trypsinized and resuspended in phenol red-free Opti-MEM Reduced Serum Medium supplemented with 4% FBS. Cells were counted and density was adjusted to 200,000 cells/mL. Cells were divided into two pools: one which received HaloTag NanoBRET 618 Ligand at a final concentration of 100 nM and one which received the same volume of DMSO. Cells were plated on white tissue-culture 96-well plates (100 μL/well) and allowed to adhere overnight. The next day, media was aspirated from the cells and replaced with phenol red-free Opti-MEM Reduced Serum medium supplemented with 4% FBS and a 1:100 dilution of Nano-Glo Vivazine substrate (Promega) and 10 μM MG132. Luminescence was allowed to equilibrate at 37 °C, 5% CO2 for 1 h. During this time, a dilution series of each PROTAC at 10x the desired final concentration was prepared (keeping DMSO constant in all concentrations). 10 μL of this dilution series was added to the plate after luminescence equilibration, and kinetic measurements of donor emission at 460 nm and acceptor emission at 618 nm were collected every 3 min using a ClarioStar plate reader. milliBRET ratios were calculated as (Emission at 618 nm/Emission at 460 nm) × 1000. Donor-contributed background or bleedthrough was corrected for by subtracting milliBRET ratios from no ligand control cells from treated cells. Corrected milliBRET ratios were plotted as a function of time in GraphPad Prism.

[4] = test system: HiBiT-BRD4 and HaloTag-CRBN; assay: NanoBRET live cell ternary complex formation assay; assay type: cell-based, human; details: for ternary complex formation between BRD4 and CRBN (in words): HiBiT-BRD4 HEK293 cells, HaloTag-CRBN, MG132 pretreatment, 0.01, 0.1 and 1 μM, 3.5 h; for time to plateau of ternary complex signal with CRBN: NanoBRET, HiBiT-BRD4 HEK293 cells with HaloTag-CRBN
Experimental: as §1

Row | VHL degradation (in words) [1] | Compound | ubiquitination of BRD4 (in words) [2] | ternary complex formation between BRD4 and VHL (in words) ([3]; listed as 27) | ternary complex formation between BRD4 and CRBN (in words) ([4]; listed as 27) | time to plateau of ternary complex signal with CRBN [4] | ternary complex formation between BRD4 and VHL (in words) [3] | ternary complex formation between BRD4 and CRBN (in words) [4]
1 | no observed degradation of VHL | Cc1ncsc1-c1ccc(CNC(=O)[C@@H]2C[C@@H](O)CN2C(=O)[C@@H](NC(=O)COCC(COCCOCCOCCNc2cc3c(cc2F)C(=O)N(C2CCC(=O)NC2=O)C3=O)(COCCOCCOCCOC(=O)C[C@@H]2N=C(c3ccc(Cl)cc3)c3c(sc(C)c3C)-n3c(C)nnc32)COCCOCCOCCOC(=O)C[C@@H]2N=C(c3ccc(Cl)cc3)c3c(sc(C)c3C)-n3c(C)nnc32)C(C)(C)C)cc1 (mixture of isomers) [AB3124 (86)] |  |  |  |  |  | 
2 |  | Cc1ncsc1-c1ccc([C@H](C)NC(=O)[C@@H]2C[C@@H](O)CN2C(=O)[C@@H](NC(=O)COCC(C)(COCCOCCOCCNc2cc3c(cc2F)C(=O)N(C2CCC(=O)NC2=O)C3=O)COCCOCCOCCOC(=O)C[C@@H]2N=C(c3ccc(Cl)cc3)c3c(sc(C)c3C)-n3c(C)nnc32)C(C)(C)C)cc1 (mixture of isomers) [AB3067 (27), (17S)-11-((2-(2-(2-((2-(2,6-dioxopiperidin-3-yl)-6-fluoro-1,3-dioxoisoindolin-5-yl)amino)ethoxy)ethoxy)ethoxy)methyl)-17-((2S,4R)-4-hydroxy-2-(((S)-1-(4-(4-methylthiazol-5-yl)phenyl)ethyl)carbamoyl)pyrrolidine-1-carbonyl)-11,18,18-trimethyl-15-oxo-3,6,9,13-tetraoxa-16-azanonadecyl 2-((S)-4-(4-chlorophenyl)-2,3,9-trimethyl-6H-thieno[3,2-f][1,2,4]triazolo[4,3-a][1,4]diazepin-6-yl)acetate] | occurs more rapidly than in either the CRBN KO or VHL KO cells | can engage and form ternary complexes; also recorded: more robust dose–response with both VHL and CRBN than 26 | can engage and form ternary complexes; also recorded: more robust dose–response with both VHL and CRBN than 26 | 30 min |  | 
3 |  | Cc1ncsc1-c1ccc(CNC(=O)[C@@H]2C[C@@H](O)CN2C(=O)[C@@H](NC(=O)COCC(C)(COCCOCCOCCNc2cc3c(cc2F)C(=O)N(C2CCC(=O)NC2=O)C3=O)COCCOCCOCCOC(=O)C[C@@H]2N=C(c3ccc(Cl)cc3)c3c(sc(C)c3C)-n3c(C)nnc32)C(C)(C)C)cc1 (mixture of isomers) [AB3063 (26), (17S)-11-((2-(2-(2-((2-(2,6-dioxopiperidin-3-yl)-6-fluoro-1,3-dioxoisoindolin-5-yl)amino)ethoxy)ethoxy)ethoxy)methyl)-17-((2S,4R)-4-hydroxy-2-((4-(4-methylthiazol-5-yl)benzyl)carbamoyl)pyrrolidine-1-carbonyl)-11,18,18-trimethyl-15-oxo-3,6,9,13-tetraoxa-16-azanonadecyl 2-((S)-4-(4-chlorophenyl)-2,3,9-trimethyl-6H-thieno[3,2-f][1,2,4]triazolo[4,3-a][1,4]diazepin-6-yl)acetate] |  |  |  | 30 min | can engage and form ternary complexes | can engage and form ternary complexes
